Experimental data from patent publication US20240408071A1, “NOVEL COMBINATION OF SEROTONIN RECEPTOR (5-HTR2B) ANTAGONIST AND AN IMMUNOMODULATOR AND CHEMOTHERAPEUTIC DRUGS FOR INHIBITION OF CANCER” (NATIONAL CENTRE FOR CELL SCIENCE, priority 2021, published 2024).
“Also recorded” adds a separate entry of the source.

Key:
PD-L1 [1] = assay: PD-L1 expression on MC38 cells in vitro (flow cytometry, mRNA); type: cell-based, mouse; details: BW-723C86 50 μM, serotonin 100 μM, RS-127445 50 μM, 72 hours (mRNA 48 hours) (FIG. 13A-E)
Description: (§1) FIG. 13 depicts 5-HTR2B signaling promotes PD-L1 expression on the MC38 cell line in vitro: (A-B) MC38 cells are treated with 5-HTR2B agonist (BW-723C86-50 μM), serotonin (100 μM), and 5-HTR2B antagonist (RS-127445-50 μM) for 72 hours, and the PD-L1 expression was checked by flow cytometry and the percentage of PD-L1^+ MC38 cells was plotted. (C-D) MFI of PD-L1 from the above experiment were plotted as histogram overlay (C) or as statistical data points (D). (E) Relative PD-L1 mRNA expression in MC38 cells following BW-723C86 and RS-127445 treatment for 48 hours. Here the values are shown as a fold change as compared to control MC38 cells. (F) Serum PD-L1 level was measured by ELISA of naïve C57BL/6J mice, control MC38 tumor-bearing mice, BW-723C86 (5 mg/kg/day) treated MC38 tumor-bearing mice and RS-127445 (5 mg/kg/day) treated MC38 tumor-bearing mice after 14 days of tumor inoculation. All the statistical analysis was performed using either Student's ‘t’ test or two-way ANOVA using Sidak's multiple comparison test. *P<0.05; **P<0.01; […]; ****P<0.0001 Error bar represents mean±standard error of means (SEM).
(§2) To understand it, investigations were done on whether 5-HTR2B signaling also affects the surface expression of molecules that alters inflammatory and cytotoxic immune cells. Among different molecules, PD-L1 is of particular interest as it is an immune checkpoint ligand that affects cytotoxic T-cell responses toward cancer. […] (FIG. 13F).

MC38 colon cancer cells = assay: MC38 colon tumor growth (tumor volume) in C57BL/6 mice; type: in vivo
Description: Tumor volumes were measured and plotted. (B) MC38 colon cancer cells were injected subcutaneously into the right flank of C57BL/6 mice. After seven days when tumors became palpable, one group was treated with 5-HTR7 antagonist SB-269970 (n=6 mice; 3 mg/kg/day) or left untreated (n=6 mice). Tumor volume was measured and plotted. (C) After seven days of the setting of tumor growth, one group was treated with a serotonin transporter blocker (SSRI) sertraline hydrochloride (n=6 mice; 15 mg/kg/week) or left untreated (n=6 mice). Tumor volume was measured and plotted. (D) C57BL/6 mice were given subcutaneously injected MC38 cells. After seven days of tumor growth, one group of mice was treated with different doses of 5-HTR2B antagonist SB-215505 (n=6). Tumor volume was measured and plotted. (E) C57BL/6 mice were given subcutaneously injected MC38 cells. After seven days of the tumor growth, one group of mice was treated with different doses of 5-HTR2B antagonist SB-215505 (n=6), one group treated with 5-HTR2B agonist BW-723C86 (n=6; 4 mg/kg/day). Tumor volume was measured and plotted. (F) MC38 cells were subcutaneously injected into C57BL/6 mice. After seven days when the tumor became palpable in mice, one group of mice was treated with FDA-approved 5-HTR2B antagonist cariprazine (Carispec; Sun pharma) via oral gavage (n=5 mice; dose 5 mg/kg body weight/day) or left untreated (n=5 mice). Tumor growth was measured and plotted. […] All the statistical analysis was performed using Student's ‘t’ test or two-way ANOVA using Sidak's multiple comparison test. *P<0.05; **P<0.01; ***P<0.00; ****P<0.0001 Error bar represents mean±standard error of means (SEM).

PD-L1 [2] = assay: Serum PD-L1 ELISA in MC38 tumor-bearing mice; type: in vivo, C57BL/6J mice; details: MC38 tumor-bearing mice, 5 mg/kg/day, 14 days after tumor inoculation (FIG. 13F)
Description: as §1, with “(F) Serum PD-L1 level was measured by ELISA of naïve C57BL/6J mice, control MC38 tumor-bearing mice, BW-723C86 (5 mg/kg/day) treated MC38 tumor-bearing mice and RS-127445 (5 mg/kg/day) treated MC38 tumor-bearing mice after 14 days of tumor inoculation.” left out
Universal competitive serotonin ELISA kit was purchased from Novus biological (Catalog #NBP2-68127), and ELISA was performed according to the manufacturer's protocol. Mouse PD-L1 DuoSet ELISA kit was procured from the R&D System (Catalog #DY1019-05), and the ELISA was performed according to the manufacturer's guidelines.
as §2

Structure (SMILES) | expression of PD-L1 in the colon cancer cells (PD-L1 [1]) | MC38 tumor growth (MC38 colon cancer cells; 4 mg/kg/day from day 7 after inoculation, vs untreated (FIG. 7A)) | effect in controlling tumor growth compared to SB-215505 (MC38 colon cancer cells; MC38 tumor, equivalent dose) | tumor growth, combination with 5-Fluorouracil (MC38 colon cancer cells; RS-127445 2 mg/kg/day + 5-Fluorouracil 10 mg/kg/alternate days, MC38 model (FIG. 16B)) | efficacy of combination with Irinotecan (MC38 colon cancer cells; RS-127445 2 mg/kg/day + Irinotecan 15 mg/kg/day for 5 days, subcutaneous colon cancer model (FIG. 16D)) | efficacy of combination with Oxaliplatin (MC38 colon cancer cells; RS-127445 2 mg/kg/day + Oxaliplatin 4 mg/kg/day for 5 days, subcutaneous colon cancer model (FIG. 16C)) | efficacy of combination with trifluorothymidine (MC38 colon cancer cells; RS-127445 2 mg/kg/day + trifluorothymidine 20 mg/kg/day (FIG. 16E)) | circulating free PD-L1 in the serum (PD-L1 [2]) | MC38 tumor growth (MC38 colon cancer cells; 5-HTR2B agonist 4 mg/kg/day (FIG. 7E))
CC(C)c1cc(-c2ccc(F)c3ccccc23)nc(N)n1 [RS-127445] | reduced the expression of PD-L1 | efficiently control the tumor growth; also recorded: potent molecule in reducing the tumor burden | even more potent effect in controlling tumor growth | much better response by reducing tumor growth than any of them alone | significantly enhanced the efficacy of irinotecan or RS-127445 alone | significantly enhanced the efficacy of oxaliplatin or RS-127445 alone | not found any significant alterations in the efficacy | diminished | 
CC(N)Cc1c[nH]c2ccc(OCc3cccs3)cc12 (centres unmarked) [BW-723C86] | increased the expression of PD-L1 |  |  |  |  |  |  | increased the circulating free PD-L1 in the serum | significantly promotes MC38 tumor growth
